# Assay results published in the Kinase Knowledgebase extract (Sharma et al. 2016).
# Biological target: MAPK14 (human) (UniProt Q16539)
# Experiment: Inhibition of MAPK14 Kinase Activity
# Conditions: not given
# Chain of MAPK14 (human) (Q16539 whole entry, looked up): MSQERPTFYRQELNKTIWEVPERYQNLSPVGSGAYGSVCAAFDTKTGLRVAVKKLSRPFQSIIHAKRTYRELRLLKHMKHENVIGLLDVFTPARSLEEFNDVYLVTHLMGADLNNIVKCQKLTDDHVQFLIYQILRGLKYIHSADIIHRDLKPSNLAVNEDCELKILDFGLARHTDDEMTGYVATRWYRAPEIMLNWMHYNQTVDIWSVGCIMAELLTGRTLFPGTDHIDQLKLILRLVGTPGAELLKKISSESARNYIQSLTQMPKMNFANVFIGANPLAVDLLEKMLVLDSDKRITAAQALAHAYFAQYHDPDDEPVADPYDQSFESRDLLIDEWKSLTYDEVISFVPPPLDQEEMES
row,IC50,Structure (SMILES)
1,< 5 µM,CC(C)(C)c1cc(C(=O)N2CCNC(=O)C2(C)CCO)c(NC(=O)Nc2cccc(Cl)c2Cl)s1 (stereo not drawn)
2,< 5 µM,CN(C)CCN1CCN(C(=O)c2cc(C(C)(C)C)sc2NC(=O)Nc2ccccc2Cl)CCC1=O
3,< 5 µM,CN(C)CCCNC(=O)CN1CCN(C(=O)c2cc(C(C)(C)C)sc2NC(=O)Nc2cccc(Cl)c2Cl)C(C)(C)C1=O
4,< 5 µM,COC(=O)N1CCN(C(=O)c2cc(C(C)(C)C)sc2NC(=O)Nc2cccc(Cl)c2Cl)CC1
5,< 5 µM,CC(C)(C)c1cc(NC(=O)Nc2ccc(F)c(Cl)c2Cl)c(C(=O)N2CCNC(=O)C2(C)C)[nH]1
6,< 5 µM,CON(C)C(=O)CN1CCN(C(=O)c2[nH]c(C(C)(C)C)cc2NC(=O)Nc2cccc(Cl)c2Cl)C(C)(C)C1=O
7,< 5 µM,CCC1(C)C(=O)N(CC(=O)NCCN(C)C)CCN1C(=O)c1cc(C(C)(C)C)sc1NC(=O)Nc1cccc(Cl)c1Cl (stereo not drawn)
8,< 5 µM,CN1CCN(C(=O)c2cc(C(C)(C)C)sc2NC(=O)Nc2cccc(Cl)c2Cl)C(C)(CC(N)=O)C1=O (stereo not drawn)
9,< 5 µM,COc1ccc(Cl)c(NC(=O)Nc2cc(C(C)(C)C)sc2C(=O)N2CCNC(=O)C2(C)C)c1
10,< 5 µM,CC1(C)OCC(CN2CCN(C(=O)c3cc(C(C)(C)C)sc3NC(=O)Nc3cccc(Cl)c3Cl)C(C)(C)C2=O)O1 (stereo not drawn)
11,< 5 µM,CONC(=O)CC1(C)C(=O)NCCN1C(=O)c1cc(C(C)(C)C)sc1NC(=O)Nc1ccc(F)c(Cl)c1Cl (stereo not drawn)
12,< 5 µM,CC(C)(C)c1cc(C(=O)N2CCN(C(=O)N3CCOCC3)CC2)c(NC(=O)Nc2cccc(Cl)c2Cl)s1
13,< 5 µM,CN(C)CCN1CCN(C(=O)c2cc(C(C)(C)C)sc2NC(=O)Nc2ccccc2C(F)(F)F)CCC1=O
14,< 5 µM,CC(C)(C)c1cc(C(=O)N2CCNC(=O)C2(C)C)c(NC(=O)Nc2ccncc2Cl)s1
15,< 5 µM,CC(C)(C)c1cc(C(=O)N2CCNC(=O)CC2)c(NC(=O)Nc2ccc3c(c2Cl)OCO3)s1
16,< 5 µM,CC(C)(C)c1cc(C(=O)N2CCN(CC(O)CO)C(=O)C2(C)C)c(NC(=O)Nc2cccc(Cl)c2Cl)s1 (stereo not drawn)
17,< 5 µM,CC(C)(C)OC(=O)N1CCN(C(=O)c2cc(C(C)(C)C)sc2NC(=O)Nc2cccc(Cl)c2Cl)CC1
18,< 5 µM,Cc1c(F)cccc1NC(=O)Nc1sc(C(C)(C)C)cc1C(=O)N1CCNC(=O)C1(C)CCO (stereo not drawn)
19,< 5 µM,CC(C)(C)c1cc(C(=O)N2CCNC(=O)C2(C)C)c(NC(=O)Nc2c(Cl)cncc2Cl)s1
20,< 5 µM,CN(C)CCN1CCN(C(=O)c2cc(C(C)(C)C)sc2NC(=O)Nc2ccncc2Cl)C(C)(C)C1=O
21,< 5 µM,CC(C)(C)c1cc(C(=O)N2CCNC(=O)C2(C)C)c(NC(=O)Nc2ccc(Cl)cc2Cl)s1
22,< 5 µM,Cc1noc(CN2CCN(C(=O)c3cc(C(C)(C)C)sc3NC(=O)Nc3ccc(F)c(Cl)c3Cl)C(C)(C)C2=O)n1
23,< 5 µM,CC(C)(C)c1cc(C(=O)N2CCNC(=O)CC2)c(NC(=O)Nc2ccc(F)c(F)c2Cl)s1
24,< 5 µM,CC(C)(C)c1nc(C(=O)N2CCNC(=O)CC2)c(NC(=O)Nc2cccc(Cl)c2Cl)s1
25,< 5 µM,CC(C)(C)c1cc(C(=O)N2CCN(S(C)(=O)=O)CC2)c(NC(=O)Nc2cccc(Cl)c2Cl)s1

row,IC50,Structure (SMILES)
1,< 5 µM,COC(=O)CN1CCN(C(=O)c2cc(C(C)(C)C)sc2NC(=O)Nc2cccc(Cl)c2Cl)CC1
2,< 5 µM,CC(C)(C)c1cc(C(=O)N2CCNC(=O)C23CCCC3)c(NC(=O)Nc2cccc(Cl)c2Cl)s1
3,< 5 µM,CC(=O)N1CCCN(C(=O)c2cc(C(C)(C)C)sc2NC(=O)Nc2cccc(Cl)c2Cl)CC1
4,< 5 µM,CC1(C)OCC(CNC(=O)CN2CCN(C(=O)c3cc(C(C)(C)C)sc3NC(=O)Nc3cccc(Cl)c3Cl)C(C)(C)C2=O)O1 (stereo not drawn)
5,< 5 µM,CN(C)CCN1CCN(C(=O)c2cc(C(C)(C)C)sc2NC(=O)Nc2cccc(Cl)c2Cl)CC(C)(C)C1=O
6,< 5 µM,CC(C)(C)c1cc(C(=O)N2CCS(=O)(=O)CC2)c(NC(=O)Nc2ccc(F)c(Cl)c2Cl)s1
7,< 5 µM,CCOC(=O)CN1CCN(C(=O)c2cc(NC(=O)Nc3ccc(F)c(Cl)c3Cl)c(C(C)(C)C)s2)C(C)(CC(=O)OC)C1=O (stereo not drawn)
8,< 5 µM,CCC(C)(C)c1cc(NC(=O)Nc2ccc(F)c(Cl)c2Cl)c(C(=O)N2CCNC(=O)C2(C)C)[nH]1
9,< 5 µM,COC(=O)c1ccc(NC(=O)Nc2sc(C(C)(C)C)cc2C(=O)N2CCNC(=O)CC2)c(Cl)c1Cl
10,< 5 µM,CC(C)(C)c1cc(C(=O)N2CCN(CCN3CCOCC3)C(=O)C2(C)C)c(NC(=O)Nc2cccc(Cl)c2Cl)s1
11,< 5 µM,Cc1ccccc1NC(=O)Nc1sc(C(C)(C)C)cc1C(=O)N1CCNC(=O)CC1
12,< 5 µM,COc1ccccc1NC(=O)Nc1sc(C(C)(C)C)cc1C(=O)N1CCN(CCN(C)C)C(=O)C1(C)C
13,< 5 µM,CC(C)(C)c1nc(C(=O)N2CCNC(=O)C2(C)C)c(NC(=O)Nc2ccc(F)c(Cl)c2Cl)s1
14,< 5 µM,COc1ccc(CCC(=O)N2CCN(C(=O)c3cc(C(C)(C)C)sc3NC(=O)Nc3cccc(Cl)c3Cl)CC2)cc1
15,< 5 µM,CC1(C)OCC(CN2CCN(C(=O)c3nc(C(C)(C)C)sc3NC(=O)Nc3cccc(Cl)c3Cl)CCC2=O)O1 (stereo not drawn)
16,< 5 µM,CC(C)(C)c1cc(C(=O)N2CCCN(S(C)(=O)=O)CC2)c(NC(=O)Nc2cccc(Cl)c2Cl)s1
17,< 5 µM,CC(C)(C)c1cc(NC(=O)Nc2cccc(Cl)c2Cl)c(C(=O)N2CCNS(=O)(=O)CC2)o1
18,< 5 µM,CC(C)(C)c1cc(C(=O)N2CCS(=O)(=O)CC2)c(NC(=O)Nc2ccc3c(c2Cl)OCO3)s1
19,< 5 µM,CC(C)(C)c1cc(C(=O)N2CCNC(=O)C2(C)CC(N)=O)c(NC(=O)Nc2cccc(Cl)c2Cl)s1 (stereo not drawn)
20,< 5 µM,CC(C)(C)c1cc(NC(=O)Nc2ccc(F)c(Cl)c2Cl)c(C(=O)N2CCNC(=O)C2(C)C)o1
21,< 5 µM,CC1(C)CN(C(=O)c2cc(C(C)(C)C)sc2NC(=O)Nc2cccc(Cl)c2Cl)CCNC1=O
22,< 5 µM,CC(C)(C)c1cc(C(=O)N2CCN(CCO)C(=O)C2(C)C)c(NC(=O)Nc2cccc(Cl)c2Cl)s1
23,< 5 µM,CC(C)(C)c1cc(C(=O)N2CCS(=O)(=O)CC2)c(NC(=O)Cc2cccc(Cl)c2Cl)s1
24,< 5 µM,CC(C)(C)c1cc(C(=O)N2CCC(=O)N(CCc3nnn[nH]3)CC2)c(NC(=O)Nc2cccc(Cl)c2Cl)s1
25,< 5 µM,CC(C)(C)c1cc(C(=O)N2CCS(=O)(=O)CC2)c(NC(=O)Nc2cccc3c2OCO3)s1

row,IC50,Structure (SMILES)
1,< 5 µM,CN(C)CCN1CCN(C(=O)c2cc(C(C)(C)C)sc2NC(=O)Nc2ccc(F)cc2Cl)C(C)(C)C1=O
2,< 5 µM,CN(C)CCN1CCN(C(=O)c2cc(C(C)(C)C)sc2NC(=O)Nc2c(Cl)cncc2Cl)C(C)(C)C1=O
3,< 5 µM,CCC1(C)C(=O)N(CC(=O)NCCN(C)C)CCN1C(=O)c1sc(C(C)(C)C)cc1NC(=O)Nc1cccc(Cl)c1Cl (stereo not drawn)
4,< 5 µM,Cc1cccc(NC(=O)Nc2sc(C(C)(C)C)cc2C(=O)N2CCN(CCN(C)C)C(=O)C2(C)C)c1Cl
5,< 5 µM,CN(C)CCN1CCN(C(=O)c2cc(C(C)(C)C)sc2NC(=O)Nc2ccc(F)c(F)c2Cl)C(C)(C)C1=O
6,< 5 µM,CON(C)C(=O)CN1CCN(C(=O)c2cc(C(C)(C)C)sc2NC(=O)Nc2ccc(F)c(F)c2Cl)C(C)(C)C1=O
7,< 5 µM,Cc1c(Cl)cccc1NC(=O)Nc1sc(C(C)(C)C)cc1C(=O)N1CCNC(=O)C1(C)CCO (stereo not drawn)
8,< 5 µM,CN(C)C(=O)N1CCN(C(=O)c2cc(C(C)(C)C)sc2NC(=O)Nc2cccc(Cl)c2Cl)CC1
9,< 5 µM,CC(C)(C)c1cc(C(=O)N2CCNC(=O)C2(C)C)c(NC(=O)Nc2ccc3c(c2Cl)OCO3)s1
10,< 5 µM,CC(C)(C)c1cc(C(=O)N2CCN(CC(=O)NCC3CC3)C(=O)C2(C)C)c(NC(=O)Nc2cccc(Cl)c2Cl)s1
11,< 5 µM,CC(C)(C)c1cc(C(=O)N2CCNC(=O)C2)c(NC(=O)Nc2ccc(F)c(Cl)c2Cl)s1
12,< 5 µM,CON(C)C(=O)CN1CCN(C(=O)c2cc(C(C)(C)C)sc2NC(=O)Nc2ccc(F)c(F)c2Cl)CCC1=O
13,< 5 µM,CC(C)(C)c1nc(C(=O)N2CCNC(=O)C2(C)C)c(NC(=O)Nc2cccc(Cl)c2Cl)s1
14,< 5 µM,CN(C)CCN1CCN(C(=O)c2cc(C(C)(C)C)sc2NC(=O)Nc2c(Cl)cncc2Cl)CCC1=O
15,< 5 µM,CCOC(=O)C(C)(CC)NC(=O)c1cc(C(C)(C)C)sc1NC(=O)Nc1cccc(Cl)c1Cl (stereo not drawn)
16,< 5 µM,Cc1ccccc1NC(=O)Nc1sc(C(C)(C)C)cc1C(=O)N1CCC(=O)N(CCN(C)C)CC1
17,< 5 µM,CC(C)(C)c1nc(C(=O)N2CCNS(=O)(=O)CC2)c(NC(=O)Nc2cccc(Cl)c2Cl)s1
18,< 5 µM,CC(C)(C)c1cc(C(=O)N2CCNC(=O)C2(C)CC(N)=O)c(NC(=O)Nc2ccc(F)c(Cl)c2Cl)s1 (stereo not drawn)
19,< 5 µM,CC(C)(C)c1cc(C(=O)N2CCNC(=O)C2(C)C)c(NC(=O)Nc2cccnc2Cl)s1
20,< 5 µM,CC(C)(C)c1cc(C(=O)N2CCC(=O)N(CCN)CC2)c(NC(=O)Nc2cccc(Cl)c2Cl)s1
21,< 5 µM,Cc1noc(CN2CCN(C(=O)c3cc(C(C)(C)C)sc3NC(=O)Nc3cccc(Cl)c3Cl)C(C)(C)C2=O)n1
22,< 5 µM,CON(C)C(=O)CN1CCN(C(=O)c2cc(C(C)(C)C)sc2NC(=O)Nc2ccc(F)cc2Cl)CCC1=O
23,< 5 µM,CC(C)(C)c1cc(C(=O)N2CCNC(=O)CC2)c(NC(=O)Nc2ccc(F)cc2Cl)s1
24,< 5 µM,CC(C)(C)c1cc(C(=O)N2CCNS(=O)(=O)CC2)c(NC(=O)Nc2ccc(F)c(Cl)c2Cl)s1

# Same assay, conditions: concentration not given here
row,inhibition,Structure (SMILES)
1,76 to 100%,CC(C)(C)c1cc(NC(=O)Nc2cccc(Cl)c2Cl)c(C(=O)N2CCNC(=O)CC2)s1
2,76 to 100%,COC(=O)CC1C(=O)NCCN1C(=O)c1cc(C(C)(C)C)sc1NC(=O)Nc1ccc2ccccc2c1 (stereo not drawn)
3,76 to 100%,COCCN1CCN(C(=O)c2cc(C(C)(C)C)sc2NC(=O)Nc2cccc(Cl)c2Cl)CCC1=O
4,76 to 100%,CC(C)(C)c1cc(C(=O)N2CCC(=O)N(CC(N)=O)CC2)c(NC(=O)Nc2cccc(Cl)c2Cl)s1
5,76 to 100%,CC(C)(C)c1cc(NC(=O)Nc2ccc(Cl)c(Cl)c2)c(C(=O)N2CCNC(=O)CC2)s1
6,76 to 100%,CC(C)(C)c1cc(C(=O)N2CCNC(=O)CC2)c(NC(=O)Nc2ccc3ocnc3c2)s1
7,26 to 50%,CC(C)(C)c1cc(C(=O)N2CCNS(=O)(=O)CC2)c(NC(=O)Nc2cnc(O)c3ccccc23)s1
8,76 to 100%,CC(C)(C)c1cc(C(=O)N2CCNC(=O)CC2)c(NC(=O)Nc2cc(Cl)cc(Cl)c2)s1

row,Structure (SMILES),inhibition
1,CC(C)(C)c1cc(C(=O)N2CCNS(=O)(=O)CC2)c(NC(=O)Nc2ccc(C#N)c(Cl)c2)s1,76 to 100%
